Our source for the IC50 values is US5059590A, “Imidazole derivatives, process for production thereof, and use thereof” (Yamasa Shoyu Kabushiki Kaisha, priority 1988, dated 1991).

In brackets after ≈: the same amount, converted by molar mass.

Assay type in all cases: cell-based
The subject of experiment [1] is L1210 mouse leukemia cells. As to the kind of experiment: In vitro anti-proliferative activity against mouse tumor cell lines, Test Method 1 (L1210). The conditions noted are these: L1210, 48 hours, 37° C. Here is the method:
(§1) In vitro anti-proliferative activity against mouse tumor cell lines
1. L1210 mouse leukemia cells are cultivated in RPMI1640 medium supplemented with 10% fetal bovine serum, and the resultant cells are diluted with the same medium in the logarithmic growth phase to a concentration of 1.6×10^5 cells/ml.
2. To test tubes each containing 0.9 ml of the above obtained diluted cell suspension is added 0.1 ml each of test solutions serially diluted with a culture medium or phosphate-buffered saline (PBS), and the mixture is incubated in a 2% CO2 -incubator at 37° C. for 48 hours.
3. After incubation, the number of the cells in each tube is counted with a Coulter counter (Model ZB, Coulter Electronics), and the growth inhibition percent (%) of the cells at each concentration of a test compound is calculated from the following equation: [formula] Tx: Number of the cells in a test tube containing a test compound as counted upon completion of the incubation (cells/ml)
Cx: Number of the cells in a test tube containing no test compound as counted upon completion of the incubation (cells/ml)
Co: Number of the cells in a test tube containing no test compound as counted at the initiation of the incubation (cells/ml)
4. The concentration of the test compound, which causes cell growth inhibition by 50%, is determined by the graph showing the relationship between the growth inhibition percent and the concentration of the test compound, and is defined as 50% inhibitory concentration (IC50).

Experiment [2] deals with Mouse lymphoma cell line P388. Put plainly: In vitro anti-proliferative activity against mouse tumor cell lines, Test Method 2 (P388). The conditions noted are these: P388, 48 hours, 37° C. On the procedure:
as §1
(§2) 1. Mouse lymphoma cell line P388 or mouse sarcoma 180 is suspended in RPMI1640 medium supplemented with 10% fetal bovine serum and 2 μM 2-hydroxyethyl disulfide to a concentration of 10^5 cells/ml. Test compounds are serially diluted with the same medium.
(§3) 2. 0.5 ml of the cell suspension thus obtained is admixed with 0.5 ml of the medium or the test compound solution, and the mixture is incubated in a 5% CO2 -incubator at 37° C. for 48 hours. The incubation is carried out in glass culture tubes.
(§4) 3. At the end of incubation, the number of the cells in each tube is counted with a Coulter counter (Model ZB, Coulter Electronics), and the growth inhibition percent (%) is calculated from the same equation as in Test Method 1.
(§5) 4. The IC50 value is obtained as in Test Method I.

In a further experiment the test system is mouse sarcoma 180. As to the kind of experiment: In vitro anti-proliferative activity against mouse tumor cell lines, Test Method 2 (sarcoma 180). The conditions noted are these: Sarcoma 180, 48 hours, 37° C. Here is the method: as §1, §2, §3, §4, §5

In experiment [1], `NC(=O)c1ncn([C@@H]2O[C@H](CO)[C@@H](O)[C@H]2O)c1C#CCCO` [5-(4-hydroxy-1butyn-1-yl)-1β-D-ribofuranosylimidazole-4-carboxamide] showed a half-maximal inhibitory concentration (IC50) of 1.28 µg/mL (≈ 4.11 µM).
`N#Cc1ncn([C@@H]2O[C@H](CO)[C@@H](O)[C@H]2O)c1C#CCCO` [R = [drawing 28]; A = CN; R^1 = CH2 CH2 OH, 5-(4-hydroxy-1-butyn-1yl)-1-β-D-ribofuranosylimidazole-4-carbonitrile] registered a half-inhibitory concentration (IC50) in experiment [1] of 3.3 µg/mL (≈ 11.3 µM).
For `C#Cc1c(C#N)ncn1[C@@H]1O[C@H](CO)[C@@H](O)[C@H]1O` [5-ethynyl-1-β-D-ribofuranosylimidazole-4-carbonitrile], the IC50 in experiment [1] was 1.9 µg/mL (≈ 7.62 µM); in experiment [2], 0.93 µg/mL (≈ 3.73 µM); with mouse sarcoma 180, 0.8 µg/mL (≈ 3.21 µM).
For `C#Cc1[nH]cnc1C#N` [5-ethynylimidazole-4-carbonitrile] the same measures were 2.9 µg/mL (≈ 24.8 µM), 14.1 µg/mL (≈ 120 µM) and 9.92 µg/mL (≈ 84.7 µM).
For the compound `C#Cc1[nH]cnc1C(N)=O` [5-ethynylimidazole-4-carboxamide], the IC50 in experiment [1] stood at 4 µg/mL (≈ 29.6 µM); in experiment [2], 4.37 µg/mL (≈ 32.3 µM); in the experiment with mouse sarcoma 180 it was 1.39 µg/mL (≈ 10.3 µM).
For the compound `N#Cc1ncn([C@@H]2O[C@H](CO)[C@@H](O)[C@H]2O)c1C#CCO` [R = [drawing 28]; A = CN; R^1 = CH2 OH, 5-(3-Hydroxy-1-propyn-1-yl)-1-β-D-ribofuranosylimidazole-4-carbonitrile], the midpoint of inhibition in experiment [1], the IC50, lay at 4.1 µg/mL (≈ 14.7 µM).
Compound `NC(=O)c1ncn([C@@H]2O[C@H](CO)[C@@H](O)[C@H]2O)c1C#CCO` [R = [drawing 28]; A = CONH2; R^1 = CH2 OH, 5-(3-Hydroxy-1-propyn-1-yl)-1-β-D-ribofuranosylimidazole-4-carboxamide] showed an IC50 in experiment [1] of 0.7 µg/mL (≈ 2.35 µM).
`CCCC#Cc1c(C(N)=O)ncn1[C@@H]1O[C@H](CO)[C@@H](O)[C@H]1O` [R = [drawing 28]; A = CONH2; R^1 = C3, 5-(1-pentyn-1-yl)-1-β-D-ribofuranosylimidazole-4-carboxamide] returned an IC50 in experiment [1] of 2.92 µg/mL (≈ 9.44 µM).
